Data reported in patent US5425942A, “Polyfunctinal protease” (Otsuka Pharamceutical Co., Ltd., priority 1988, dated 1995).
Values joined by “and” are separate entries in the source; they are usually repeats but may differ in a detail not shown here. Equal entries are not always repeated. Where two headings read alike, the source gives them in different places.

Molecular target: T1, human proteasome (Homo sapiens, UniProt P28072+P28074+Q99436)
T1 construct: The desired homogeneous human proteasome was thus recovered in the fraction at about 340 mM KCl; from tissue
Assay: Activity inhibition of human proteasome by protease inhibitors
Format: biochemical

Inhibition Rate (%) by Inhibitor (substrate Cbz-Ala-Arg-Arg-MNA, inhibitor 50 μg/ml, 2 μg proteasome, room temperature, one hour, optimal pH)	Inhibition Rate (%) by Inhibitor (substrate Cbz-Leu-Leu-Glu-NA, inhibitor 50 μg/ml, 2 μg proteasome, room temperature, one hour, optimal pH)	Inhibition Rate (%) by Inhibitor (substrate Suc-Leu-Leu-Val-Tyr-MCA, inhibitor 50 μg/ml, 2 μg proteasome, room temperature, one hour, optimal pH)	Compound	Inhibition Rate (%) by Inhibitor	inhibition at 10000 µM (read-out: Inhibition Rate (%) by Inhibitor)
–	–	–	CCN1C(=O)C=CC1=O [C, N-ethylmaleimide]	96% and 99%	88%
19%	0%	75%	Chymostatin [B]	–	–
